Data: patent publication US20160361255A1, “Peptide Nanotubes for Slow Release of Drugs at Peripheral Nerve Injury” (The University of Toledo, priority 2015, published 2016)

Key:
[1] = system: differentiated dopaminergic PC12 cells; test: LIVE/DEAD viability of differentiated PC12 cells exposed to 6-OHDA; format: cell-based; conditions: 1 μM for 6 h, then 30 μM 6-OHDA for 24 h
Description: Differentiated dopaminergic PC12 cells and primary mouse embryonic cortical neurons (E17, DIV14) were treated with mock (H2O) or 1 μM of dextran, alginate, HA-GAGR or midi-GAGR for 6 h and insulated by oxidative stressors (30 μM 6-OHDA [PC12] and 10 μM amyloid β peptide [cortical neurons]) for 24 h. The viability of neurons was assessed using LIVE/DEAD Viability/Cytotoxicity Assay Kit (Invitrogen).

phosphorylated CREB [2] = test: Nuclear phospho-CREB immunostaining in PC12 cells; format: cell-based; conditions: 1 μM, 24 h
Description: (§1) Differentiated PC12 cells and mouse embryonic cortical neurons (E17, DIV14) were treated with mock, dextran, alginate, HA-GAGR or midi-GAGR (1 μM) for 24 h and fixed in 3.7% paraformaldehyde. The fixed cells and neurons were immunostained with antibodies against α-tubulin and phospho-CREB (p-CREB) along with DAPI (nucleus).

phosphorylated CREB [3] = test: Nuclear phospho-CREB immunostaining in cortical neurons; format: cell-based, mouse; conditions: 1 μM, 24 h
Description: as §1

[4] = system: rat embryonic cortical neurons; test: Scholl ring analysis of cortical neurons exposed to 4-HNE; format: cell-based; conditions: pretreatment 2 days, then 25 μM 4-HNE 1 day
Description: Rat embryonic cortical neurons were treated with mock (FIG. 11C), 1 μM HA-GAGR (high acyl gellan gum), 1 μM dextran, 100 μM ascorbate or 1 μM midi-GAGR (FIG. 11D) for 2 days and then with 25 μM 4-hydroxynonenal (4-HNE), a lipid peroxide, for 1 day. After fixation, neurons were immunostained with anti-synaptophysin antibody (green) and rhodamine-phalloidin (actin: red). Scholl ring analysis was performed. Neurons pre-treated with mock, dextran or ascorbate lost neuritis (neuritic atrophy) in the presence of 4-HNE.

[5] = ABTS Antioxidant Assay Kit; format: biochemical; conditions: 10 μM
Description: The antioxidant capacity of midi-GAGR was measured using ABTS Antioxidant Assay Kit (Zenbio Co.). […] This was slightly stronger than antioxidant capacity of LA-GAGR (10 μM LA-GAGR=15.4 μM Trolox) (Table 2)

[6] = even at high doses (~200 mg/kg); cited from earlier work
[7] = cited from earlier work

Row | Substance | 6-OHDA-induced cell death [1] | increase of nuclear p-CREB levels (phosphorylated CREB [2]) | increase of nuclear p-CREB levels (phosphorylated CREB [3]) | neurites (neuritic atrophy) in the presence of 4-HNE [4] | antioxidant capacity [5] | side effects in humans [6] | oral bioavailability [7]
1 | alginate | did not | not significantly increased | not significantly increased |  |  |  | 
2 | dextran | did not | not significantly increased | not significantly increased | lost neuritis |  |  | 
3 | high acyl gellan gum [HA-GAGR] |  | not significantly increased | not significantly increased | formed neuritis, but less branched |  |  | 
4 | low acyl gellan gum [LA-GAGR] |  |  |  |  | 15.4 μM Trolox | few side effects | good
